# Experimental data from publication PMC5218480 (PLoS ONE, 2017).
# Tested on: MV-4-11 cells
# Assay: Gene expression microarray analysis (Affymetrix PrimeView) and GSEA
# Assay type: cell-based, human
# Parameters: RFU PODN (11730768_x_at) / Fold change /veh PODN (11730768_x_at) / RFU LINC00158 (11744669_a_at) / Fold change /veh LINC00158 (11744669_a_at) / RFU DUSP10 (11751237_a_at) / Fold change /veh DUSP10 (11751237_a_at) / RFU ID3 (11757404_x_at) / Fold change /veh ID3 (11757404_x_at) / RFU PLEKHG5 (11737974_s_at) / Fold change /veh PLEKHG5 (11737974_s_at) / RFU LRRC4B (11730491_at) / Fold change /veh LRRC4B (11730491_at) / RFU GIMAP4 (11747438_a_at) / Fold change /veh GIMAP4 (11747438_a_at) / RFU KRT8 (11758183_x_at) / Fold change /veh KRT8 (11758183_x_at) / RFU CNN1 (11734310_a_at) / Fold change /veh CNN1 (11734310_a_at) / RFU VPS37D (11726825_at) / Fold change /veh VPS37D (11726825_at) / RFU C10orf10 (11716522_x_at) / Fold change /veh C10orf10 (11716522_x_at) / RFU KIR2DL2 /// KIR2DL4 /// KIR2DL5A /// KIR2DL5B /// KIR2DS1 /// KIR2DS2 /// KIR2DS3 /// KIR2DS4 /// KIR3DL3 /// KIR3DL3 /// KIR3DS1 (11738374_at) / Fold change /veh KIR2DL2 /// KIR2DL4 /// KIR2DL5A /// KIR2DL5B /// KIR2DS1 /// KIR2DS2 /// KIR2DS3 /// KIR2DS4 /// KIR3DL3 /// KIR3DL3 /// KIR3DS1 (11738374_at) / RFU C1QL1 (11718748_at) / Fold change /veh C1QL1 (11718748_at) / RFU TMPRSS4 (11747572_a_at) / Fold change /veh TMPRSS4 (11747572_a_at) / RFU HAMP (11756126_x_at) / Fold change /veh HAMP (11756126_x_at) / RFU RNFT2 (11725882_a_at) / Fold change /veh RNFT2 (11725882_a_at) / RFU NR4A2 (11747474_a_at) / Fold change /veh NR4A2 (11747474_a_at) / RFU ABCC12 (11746883_a_at) / Fold change /veh ABCC12 (11746883_a_at) / RFU TMEM136 (11760407_x_at) / Fold change /veh TMEM136 (11760407_x_at) / RFU CLDN22 /// WWC2 (11732394_at) / Fold change /veh CLDN22 /// WWC2 (11732394_at) / RFU HLA-DPB1 (11760878_x_at) / Fold change /veh HLA-DPB1 (11760878_x_at) / RFU SPINT1 (11716480_a_at) / Fold change /veh SPINT1 (11716480_a_at) / RFU GAP43 (11754022_s_at) / Fold change /veh GAP43 (11754022_s_at) / RFU A4GNT (11735810_at) / Fold change /veh A4GNT (11735810_at) / RFU PRB3 (11715151_x_at) / Fold change /veh PRB3 (11715151_x_at) / RFU TUBB4B (11761932_at) / Fold change /veh TUBB4B (11761932_at) / RFU CAPN14 (11732068_a_at) / Fold change /veh CAPN14 (11732068_a_at) / RFU TMCC2 (11721928_a_at) / Fold change /veh TMCC2 (11721928_a_at) / RFU IRGQ (11745062_a_at) / Fold change /veh IRGQ (11745062_a_at) / RFU FAM174B (11720279_a_at) / Fold change /veh FAM174B (11720279_a_at) / RFU TMPRSS4 (11748680_a_at) / Fold change /veh TMPRSS4 (11748680_a_at) / RFU FAM212B (11763350_a_at) / Fold change /veh FAM212B (11763350_a_at) / RFU PLEKHG5 (11743358_a_at) / Fold change /veh PLEKHG5 (11743358_a_at) / RFU ZSCAN30 (11745921_a_at) / Fold change /veh ZSCAN30 (11745921_a_at) / RFU CMKLR1 (11741424_a_at) / Fold change /veh CMKLR1 (11741424_a_at) / RFU LOC101060620 /// MAPK8IP1 (11723275_at) / Fold change /veh LOC101060620 /// MAPK8IP1 (11723275_at) / RFU SPTSSB (11747773_x_at) / Fold change /veh SPTSSB (11747773_x_at) / RFU PRSS12 (11739890_at) / Fold change /veh PRSS12 (11739890_at) / RFU BIN1 (11741810_x_at) / Fold change /veh BIN1 (11741810_x_at) / RFU WNT11 (11732464_a_at) / Fold change /veh WNT11 (11732464_a_at) / RFU C10orf10 (11716521_a_at) / Fold change /veh C10orf10 (11716521_a_at) / RFU C5orf56 (11738089_at) / Fold change /veh C5orf56 (11738089_at) / RFU CYB561 (11721691_x_at) / Fold change /veh CYB561 (11721691_x_at) / RFU ANKRD19P (11752326_a_at) / Fold change /veh ANKRD19P (11752326_a_at) / RFU OR2T12 /// OR2T33 /// OR2T8 (11738714_s_at) / Fold change /veh OR2T12 /// OR2T33 /// OR2T8 (11738714_s_at) / RFU VCAN (11748164_a_at) / Fold change /veh VCAN (11748164_a_at) / RFU JSRP1 (11732532_at) / Fold change /veh JSRP1 (11732532_at) / RFU KRTAP10-11 (11738290_x_at) / Fold change /veh KRTAP10-11 (11738290_x_at) / RFU MYO3A (11730013_a_at) / Fold change /veh MYO3A (11730013_a_at) / RFU EBF3 (11725865_a_at) / Fold change /veh EBF3 (11725865_a_at) / RFU CAMK2N1 (11719241_x_at) / Fold change /veh CAMK2N1 (11719241_x_at) / RFU C5orf56 (11738088_a_at) / Fold change /veh C5orf56 (11738088_a_at) / RFU OLFML3 (11715873_a_at) / Fold change /veh OLFML3 (11715873_a_at) / RFU LOC100653217 /// NTM (11731650_a_at) / Fold change /veh LOC100653217 /// NTM (11731650_a_at) / RFU MAPK11 (11762145_a_at) / Fold change /veh MAPK11 (11762145_a_at) / RFU FIZ1 (11724087_x_at) / Fold change /veh FIZ1 (11724087_x_at) / RFU OASL (11726364_x_at) / Fold change /veh OASL (11726364_x_at) / RFU SOX15 (11748057_x_at) / Fold change /veh SOX15 (11748057_x_at) / RFU CD79A (11719716_a_at) / Fold change /veh CD79A (11719716_a_at) / RFU HIST1H1D (11736915_at) / Fold change /veh HIST1H1D (11736915_at) / RFU CASKIN2 (11723855_a_at) / Fold change /veh CASKIN2 (11723855_a_at) / RFU LOC730098 (11760151_x_at) / Fold change /veh LOC730098 (11760151_x_at) / RFU OR4N2 (11742367_at) / Fold change /veh OR4N2 (11742367_at) / RFU PRRT2 (11749266_a_at) / Fold change /veh PRRT2 (11749266_a_at) / RFU SNX32 (11753110_a_at) / Fold change /veh SNX32 (11753110_a_at) / RFU CDHR5 (11726645_a_at) / Fold change /veh CDHR5 (11726645_a_at) / RFU RCAN1 (11760418_a_at) / Fold change /veh RCAN1 (11760418_a_at) / RFU FAM167A (11723789_a_at) / Fold change /veh FAM167A (11723789_a_at) / RFU FAM26E (11764081_at) / Fold change /veh FAM26E (11764081_at) / RFU ISYNA1 (11749810_s_at) / Fold change /veh ISYNA1 (11749810_s_at) / RFU ACY1 (11761880_at) / Fold change /veh ACY1 (11761880_at) / RFU 11764098_at / Fold change /veh 11764098_at / RFU SAMD14 (11745864_x_at) / Fold change /veh SAMD14 (11745864_x_at) / RFU NPB (11741838_a_at) / Fold change /veh NPB (11741838_a_at) / RFU TMPRSS6 (11731388_a_at) / Fold change /veh TMPRSS6 (11731388_a_at) / RFU KRTAP10-2 (11738614_at) / Fold change /veh KRTAP10-2 (11738614_at) / RFU ARHGAP8 /// PRR5-ARHGAP8 (11727945_x_at) / Fold change /veh ARHGAP8 /// PRR5-ARHGAP8 (11727945_x_at) / RFU KRTAP5-7 /// NADSYN1 (11734609_at) / Fold change /veh KRTAP5-7 /// NADSYN1 (11734609_at) / RFU RASL12 (11751679_a_at) / Fold change /veh RASL12 (11751679_a_at) / RFU CDKN2B (11736163_a_at) / Fold change /veh CDKN2B (11736163_a_at) / RFU PRF1 (11729649_at) / Fold change /veh PRF1 (11729649_at) / RFU, ZNF638 /// ZNF638-IT1 / Fold change vs veh, ZNF638 /// ZNF638-IT1 / RFU, PANK3 / Fold change vs veh, PANK3 / RFU, SH3YL1 / Fold change vs veh, SH3YL1 / RFU, ZEB2 / Fold change vs veh, ZEB2 / RFU, NRIP1 / Fold change vs veh, NRIP1 / RFU, PTTG1IP / Fold change vs veh, PTTG1IP / RFU, CAPN2 / Fold change vs veh, CAPN2 / RFU, MED14 / Fold change vs veh, MED14 / RFU, SNORA58 / Fold change vs veh, SNORA58 / RFU, C1orf63 / Fold change vs veh, C1orf63 / RFU, LRRFIP1 / Fold change vs veh, LRRFIP1 / RFU, NDUFAF7 / Fold change vs veh, NDUFAF7 / RFU, SLC12A2 / Fold change vs veh, SLC12A2 / RFU, IBTK / Fold change vs veh, IBTK / RFU, ESF1 / Fold change vs veh, ESF1 / Fold change vs veh, TMEM50B / RFU, TAOK1 / Fold change vs veh, TAOK1 / RFU, ACBD3 / Fold change vs veh, ACBD3 / RFU, TMA16 / Fold change vs veh, TMA16 / RFU, RWDD3 / Fold change vs veh, RWDD3 / RFU, BCAT1 / Fold change vs veh, BCAT1 / RFU, EDEM3 / Fold change vs veh, EDEM3 / RFU, TMEM33 / Fold change vs veh, TMEM33 / RFU, WDR75 / Fold change vs veh, WDR75 / RFU, AHCTF1 / Fold change vs veh, AHCTF1 / RFU, TFRC / Fold change vs veh, TFRC / RFU, ZDHHC17 / Fold change vs veh, ZDHHC17 / RFU, NOM1 / Fold change vs veh, NOM1 / RFU, ARL8B / Fold change vs veh, ARL8B / RFU, ZBTB11 / Fold change vs veh, ZBTB11 / RFU, TAMM41 / Fold change vs veh, TAMM41 / RFU, KIAA1704 /// LOC100996395 / Fold change vs veh, KIAA1704 /// LOC100996395 / RFU, ING1 / Fold change vs veh, ING1 / RFU, TRMT61B / Fold change vs veh, TRMT61B / RFU, FUBP3 / Fold change vs veh, FUBP3 / RFU, TP53 / Fold change vs veh, TP53 / RFU, TNKS2 / Fold change vs veh, TNKS2 / RFU, ZFP14 / Fold change vs veh, ZFP14 / RFU, ACTR2 / Fold change vs veh, ACTR2 / RFU, PPP3R1 / Fold change vs veh, PPP3R1 / RFU, PIK3R1 / Fold change vs veh, PIK3R1 / RFU, HNRNPA1 / Fold change vs veh, HNRNPA1 / RFU, RNF170 / Fold change vs veh, RNF170 / RFU, ZNF28 / Fold change vs veh, ZNF28 / RFU, RNGTT / Fold change vs veh, RNGTT / RFU, OGT / Fold change vs veh, OGT / RFU, BRD1 / Fold change vs veh, BRD1 / RFU, MARS / Fold change vs veh, MARS / RFU, ZNF655 / Fold change vs veh, ZNF655 / RFU, FAHD1 / Fold change vs veh, FAHD1 / RFU, BDP1 / Fold change vs veh, BDP1 / RFU, LRRCC1 / Fold change vs veh, LRRCC1 / RFU, ARID1A / Fold change vs veh, ARID1A / RFU, ZNF146 / Fold change vs veh, ZNF146 / RFU, ZNF330 / Fold change vs veh, ZNF330 / RFU, GPN3 / Fold change vs veh, GPN3 / RFU, C9orf123 / Fold change vs veh, C9orf123 / RFU, N4BP2L2 / Fold change vs veh, N4BP2L2 / RFU, ARFIP1 / Fold change vs veh, ARFIP1 / RFU, FAM179B / Fold change vs veh, FAM179B / RFU, BCL10 / Fold change vs veh, BCL10 / RFU, UHRF1BP1L / Fold change vs veh, UHRF1BP1L / RFU, BET1 / Fold change vs veh, BET1 / RFU, CNOT2 / Fold change vs veh, CNOT2 / RFU, ZNF268 / Fold change vs veh, ZNF268 / Fold change vs veh, ZNF507 / RFU, DGCR2 / Fold change vs veh, DGCR2 / RFU, WDSUB1 / Fold change vs veh, WDSUB1 / Fold change vs veh, HSP90B1 /// MIR3652 / RFU, ADSS / Fold change vs veh, ADSS / RFU, GK / Fold change vs veh, GK / RFU, ZNF148 / Fold change vs veh, ZNF148 / RFU, TAF9 / Fold change vs veh, TAF9 / RFU, SLC1A5 / Fold change vs veh, SLC1A5 / RFU, SLMO2 / Fold change vs veh, SLMO2 / RFU, ABCC4 / Fold change vs veh, ABCC4 / RFU, LOC101060439 /// RAP1B / Fold change vs veh, LOC101060439 /// RAP1B / RFU, RFX7 / Fold change vs veh, RFX7 / RFU, GTPBP10 / Fold change vs veh, GTPBP10 / RFU, CNEP1R1 / Fold change vs veh, CNEP1R1 / RFU, BIVM-ERCC5 /// ERCC5 / Fold change vs veh, BIVM-ERCC5 /// ERCC5 / RFU, ILF3 / Fold change vs veh, ILF3 / RFU 11762660_at / Fold change /veh 11762660_at / RFU VCAN (11757783_s_at) / Fold change /veh VCAN (11757783_s_at) / RFU DDX43 (11728927_at) / Fold change /veh DDX43 (11728927_at) / RFU KRT8 (11758188_x_at) / Fold change /veh KRT8 (11758188_x_at) / RFU NKD1 (11759106_at) / Fold change /veh NKD1 (11759106_at) / RFU SRD5A1 (11742802_a_at) / Fold change /veh SRD5A1 (11742802_a_at) / RFU TPSAB1 /// TPSB2 (11721975_s_at) / Fold change /veh TPSAB1 /// TPSB2 (11721975_s_at) / RFU GSTM3 (11746129_a_at) / Fold change /veh GSTM3 (11746129_a_at) / RFU IL23R (11737362_x_at) / Fold change /veh IL23R (11737362_x_at) / RFU TMEM51 (11727254_a_at) / Fold change /veh TMEM51 (11727254_a_at) / RFU PIWIL2 (11732686_x_at) / Fold change /veh PIWIL2 (11732686_x_at) / RFU ORM1 (11744905_x_at) / Fold change /veh ORM1 (11744905_x_at) / RFU CCDC152 (11743942_at) / Fold change /veh CCDC152 (11743942_at) / RFU ECM1 (11717891_a_at) / Fold change /veh ECM1 (11717891_a_at) / RFU IL23R (11748794_a_at) / Fold change /veh IL23R (11748794_a_at) / RFU TNFAIP8L3 (11732012_x_at) / Fold change /veh TNFAIP8L3 (11732012_x_at) / RFU MBOAT4 (11741988_at) / Fold change /veh MBOAT4 (11741988_at) / RFU 11764193_at / Fold change /veh 11764193_at / RFU TMEM53 (11763286_at) / Fold change /veh TMEM53 (11763286_at) / RFU MAGEB2 (11727129_at) / Fold change /veh MAGEB2 (11727129_at) / RFU TMEM200A (11744735_a_at) / Fold change /veh TMEM200A (11744735_a_at) / RFU CCDC152 (11751479_a_at) / Fold change /veh CCDC152 (11751479_a_at) / RFU FAM211A (11726209_a_at) / Fold change /veh FAM211A (11726209_a_at) / RFU RGS16 (11746705_a_at) / Fold change /veh RGS16 (11746705_a_at) / RFU VCAN (11755009_s_at) / Fold change /veh VCAN (11755009_s_at) / RFU RHOB (11743442_s_at) / Fold change /veh RHOB (11743442_s_at) / RFU RGS16 (11720943_a_at) / Fold change /veh RGS16 (11720943_a_at) / RFU RGS16 (11720944_at) / Fold change /veh RGS16 (11720944_at) / RFU, VPS4B / Fold change vs veh, VPS4B / RFU, CREB1 / Fold change vs veh, CREB1 / RFU, DNAJC13 / Fold change vs veh, DNAJC13 / RFU, GNAQ / Fold change vs veh, GNAQ / RFU, CDK5R1 / Fold change vs veh, CDK5R1 / RFU, ZRANB3 / Fold change vs veh, ZRANB3 / RFU, CUL4A / Fold change vs veh, CUL4A / RFU, CCNY / Fold change vs veh, CCNY / RFU, UFL1 / Fold change vs veh, UFL1 / RFU, COG3 / Fold change vs veh, COG3 / RFU, DIAPH2 / Fold change vs veh, DIAPH2 / RFU, SKA2 / Fold change vs veh, SKA2 / RFU, AFF3 / Fold change vs veh, AFF3 / RFU, LMF1 / Fold change vs veh, LMF1 / RFU, IPO11 / Fold change vs veh, IPO11 / RFU, DFFB / Fold change vs veh, DFFB / RFU, FOXP1 / Fold change vs veh, FOXP1 / RFU, CARD8 / Fold change vs veh, CARD8 / RFU, STRN3 / Fold change vs veh, STRN3 / RFU, ADK / Fold change vs veh, ADK / RFU, RASSF2 / Fold change vs veh, RASSF2 / RFU, WIPF1 / Fold change vs veh, WIPF1 / RFU, LARP1B / Fold change vs veh, LARP1B / RFU, RASA1 / Fold change vs veh, RASA1 / RFU, RB1 / Fold change vs veh, RB1 / RFU, PPFIA1 / Fold change vs veh, PPFIA1 / RFU, MAT2A / Fold change vs veh, MAT2A / RFU, CCT5 / Fold change vs veh, CCT5 / RFU, WDR92 / Fold change vs veh, WDR92 / RFU, CUX1 / Fold change vs veh, CUX1 / RFU, TTC7A / Fold change vs veh, TTC7A / RFU, TMEM135 / Fold change vs veh, TMEM135 / RFU, DEPTOR / Fold change vs veh, DEPTOR / RFU, CPM / Fold change vs veh, CPM / RFU, DNAJB6 / Fold change vs veh, DNAJB6 / RFU, CACNA2D3 / Fold change vs veh, CACNA2D3 / RFU, DTX4 / Fold change vs veh, DTX4 / RFU, TFCP2 / Fold change vs veh, TFCP2 / RFU, GMCL1 /// GMCL1P1 / Fold change vs veh, GMCL1 /// GMCL1P1 / RFU, AEBP2 / Fold change vs veh, AEBP2 / RFU, SNHG1 /// SNORD22 /// SNORD25 /// SNORD26 /// SNORD27 /// SNORD28 /// SNORD29 /// SNORD31 / Fold change vs veh, SNHG1 /// SNORD22 /// SNORD25 /// SNORD26 /// SNORD27 /// SNORD28 /// SNORD29 /// SNORD31 / Fold change (Aza/veh), C12orf56 (ProbeSet 11735607_a_at) / Fold change (ACY-1035/veh), C12orf56 (ProbeSet 11735607_a_at) / Fold change (Aza/veh), FGFR1OP (ProbeSet 11751329_s_at) / Fold change (ACY-1035/veh), FGFR1OP (ProbeSet 11751329_s_at) / Fold change (Aza/veh), VPS36 (ProbeSet 11739960_a_at) / Fold change (ACY-1035/veh), VPS36 (ProbeSet 11739960_a_at) / RFU SYPL1 (11715823_x_at) / Fold change /veh SYPL1 (11715823_x_at) / RFU IGFBP7 (11715501_s_at) / Fold change /veh IGFBP7 (11715501_s_at) / RFU REEP3 (11722064_at) / Fold change /veh REEP3 (11722064_at) / RFU IGLL1 (11728026_x_at) / Fold change /veh IGLL1 (11728026_x_at): dose or concentration left out as unconfirmed
# Conditions: MV-4-11 cells, 48 hours
smiles,measurement,value
Nc1ncn([C@@H]2O[C@H](CO)[C@@H](O)[C@H]2O)c(=O)n1 [azacitidine],RFU BIN1 (11741810_x_at),29.77 RFU
